Laboratory results from patent publication US6737383B1, “Herbicidal oxadiazolidines” (priority 1999, dated 2004).

Experiments:
[1] = tested on: bedstraw; test: Test B pre/postemergence bedstraw; type: in vivo, Galium aparine
How it was run: (§1)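 Response is a visual 0-to-10 score relative to untreated plants, where 0 means no effect and 10 means complete control, taken twelve to sixteen days after application. Treatments went onto soil at planting and onto foliage of 1- to 4-leaf plants, using a surfactant-containing non-phytotoxic solvent.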

[2] = tested on: blackgrass; test: Test B pre/postemergence blackgrass; type: in vivo, Alopecurus myosuroides
How it was run: as §1

[3] = tested on: surinam grass; test: Test B pre/postemergence surinam grass; type: in vivo, Brachiaria decumbens
How it was run: as §1

[4] = tested on: cocklebur; test: Test B pre/postemergence cocklebur; type: in vivo, Xanthium strumarium
How it was run: as §1

[5] = tested on: corn; test: Test B pre/postemergence corn; type: in vivo, Zea mays
How it was run: as §1

[6] = tested on: crabgrass; test: Test B pre/postemergence crabgrass; type: in vivo, Digitaria sanguinalis
How it was run: as §1

[7] = tested on: giant foxtail; test: Test B pre/postemergence giant foxtail; type: in vivo, Setaria faberii
How it was run: as §1

[8] = tested on: morningglory; test: Test B pre/postemergence morningglory; type: in vivo, Ipomoea hederacea
How it was run: as §1

[9] = tested on: pigweed; test: Test B pre/postemergence pigweed; type: in vivo, Amaranthus retroflexus
How it was run: as §1

[10] = tested on: rape; test: Test B pre/postemergence rape; type: in vivo, Brassica napus
How it was run: as §1

[11] = tested on: sugar beet; test: Test B pre/postemergence sugar beet; type: in vivo, Beta vulgaris
How it was run: as §1

[12] = tested on: velvetleaf; test: Test B pre/postemergence velvetleaf; type: in vivo, Abutilon theophrasti
How it was run: as §1

[13] = tested on: wild oat; test: Test B pre/postemergence wild oat; type: in vivo, Avena fatua
How it was run: as §1

[14] = tested on: rice; test: Test B flood test rice; type: in vivo, Oryza sativa
How it was run: (§2)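 Flood test on plants grown to the 2-leaf stage; treated plants kept in greenhouse twelve to sixteen days, then visually rated against controls on a 0 (no effect) to 10 (complete control) scale.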

[15] = tested on: smallflower flatsedge; test: Test B flood test smallflower flatsedge; type: in vivo, Cyperus difformis
How it was run: as §2

[16] = tested on: bamyardgrass; test: Test B flood test barnyardgrass; type: in vivo, Echinochloa crus-galli
How it was run: as §2

[17] = Preemergence, Rate 62 g/ha, scale of 0 to 10 where 0 is no effect and 10 is complete control
[18] = Preemergence, Rate 125 g/ha, 0 is no effect, 10 is complete control
[19] = Preemergence, Rate 250 g/ha, scale 0 to 10, 0 is no effect, 10 is complete control
[20] = Preemergence, Rate 500 g/ha, scale of 0 to 10 where 0 is no effect and 10 is complete control
[21] = Rate 62 g/ha, Postemergence, scale of 0 to 10 where 0 is no effect and 10 is complete control
[22] = Rate 125 g/ha, Postemergence, scale 0 to 10
[23] = Rate 500 g/ha, Postemergence, scale 0 to 10
[24] = Rate 62 g/ha, headed Pre-emergence (flood test species), scale 0 to 10 (0 no effect, 10 complete control)
[25] = Rate 125 g/ha, Pre-emergence, flood test species, scale 0 to 10 where 0 is no effect and 10 is complete control
[26] = Rate 250 g/ha, Pre-emergence, flood-test species, scale 0 to 10, 0 is no effect, 10 is complete control
[27] = Rate 500 g/ha, headed Pre-emergence (flood test species), scale 0 to 10 (0 no effect, 10 complete control)

Cc1nc(C)c(-n2c(=O)on(C(=O)N(c3ccccc3)C(C)C)c2=O)s1 [Compound 197]
2: Crabgrass plant response rating [6, 23]
5: Morningglory plant response rating [8, 22] | Plant response rating (0 to 10; 0 is no effect, 10 is complete control), Morningglory ([8]; Rate 250 g/ha, Postemergence)
0: Bedstraw plant response rating [1, 17] | Bedstraw plant response rating (0 to 10 scale) [1, 18] | Bedstraw plant response rating [1, 19] | Plant response rating, Bedstraw [1, 20] | Bedstraw plant response rating [1, 21] | Bedstraw plant response rating [1, 22] | Plant response rating (0 to 10; 0 is no effect, 10 is complete control), Bedstraw ([1]; Rate 250 g/ha, Postemergence) | Blackgrass plant response rating [2, 17] | Blackgrass plant response rating (0 to 10 scale) [2, 18] | Blackgrass plant response rating [2, 19] | Plant response rating, Blackgrass [2, 20] | Blackgrass plant response rating [2, 21] | Blackgrass plant response rating [2, 22] | Plant response rating (0 to 10; 0 is no effect, 10 is complete control), Blackgrass ([2]; Rate 250 g/ha, Postemergence) | Blackgrass plant response rating [2, 23] | B. signalgrass plant response rating [3, 17] | B. signalgrass plant response rating (0 to 10 scale) [3, 18] | B. signalgrass plant response rating [3, 19] | Plant response rating, B. signalgrass [3, 20] | B. signalgrass plant response rating [3, 21] | B. signalgrass plant response rating ([3]; Rate 125 g/ha, Postemergence, scale 0 (no effect) to 10 (complete control)) | Plant response rating, B. signalgrass ([3]; Rate 250 g/ha, Postemergence, scale 0 to 10, 0 is no effect, 10 is complete control) | B. signalgrass plant response rating ([3]; Rate 500 g/ha, Postemergence, scale 0 to 10, 0 no effect, 10 complete control) | Cocklebur plant response rating [4, 17] | Cocklebur plant response rating (0 to 10 scale) [4, 18] | Cocklebur plant response rating [4, 19] | Plant response rating, Cocklebur [4, 20] | Cocklebur plant response rating [4, 21] | Cocklebur plant response rating [4, 22] | Plant response rating (0 to 10; 0 is no effect, 10 is complete control), Cocklebur ([4]; Rate 250 g/ha, Postemergence) | Cocklebur plant response rating [4, 23] | Corn plant response rating [5, 17] | Corn plant response rating (0 to 10 scale) [5, 18] | Corn plant response rating [5, 19] | Plant response rating, Corn [5, 20] | Corn plant response rating [5, 21] | Corn plant response rating [5, 22] | Plant response rating (0 to 10; 0 is no effect, 10 is complete control), Corn ([5]; Rate 250 g/ha, Postemergence) | Corn plant response rating [5, 23] | Crabgrass plant response rating [6, 17] | Crabgrass plant response rating (0 to 10 scale) [6, 18] | Crabgrass plant response rating [6, 19] | Crabgrass plant response rating [6, 21] | Crabgrass plant response rating [6, 22] | Plant response rating (0 to 10; 0 is no effect, 10 is complete control), Crabgrass ([6]; Rate 250 g/ha, Postemergence) | Giant foxtail plant response rating [7, 17] | Giant foxtail plant response rating (0 to 10 scale) [7, 18] | Giant foxtail plant response rating [7, 19] | Giant foxtail plant response rating [7, 21] | Giant foxtail plant response rating [7, 22] | Plant response rating (0 to 10; 0 is no effect, 10 is complete control), Giant foxtail ([7]; Rate 250 g/ha, Postemergence) | Morningglory plant response rating [8, 17] | Morningglory plant response rating (0 to 10 scale) [8, 18] | Morningglory plant response rating [8, 19] | Plant response rating, Morningglory [8, 20] | Morningglory plant response rating [8, 23] | Redroot pigweed plant response rating [9, 17] | Redroot pigweed plant response rating (0 to 10 scale) [9, 18] | Redroot pigweed plant response rating [9, 19] | Plant response rating, Redroot pigweed [9, 20] | Redroot pigweed plant response rating [9, 21] | Redroot pigweed plant response rating [9, 22] | Plant response rating (0 to 10; 0 is no effect, 10 is complete control), Redroot pigweed ([9]; Rate 250 g/ha, Postemergence) | Redroot pigweed plant response rating [9, 23] | Rape plant response rating [10, 17] | Rape plant response rating (0 to 10 scale) [10, 18] | Rape plant response rating [10, 19] | Plant response rating, Rape [10, 20] | Rape plant response rating [10, 21] | Rape plant response rating [10, 22] | Plant response rating (0 to 10; 0 is no effect, 10 is complete control), Rape ([10]; Rate 250 g/ha, Postemergence) | Rape plant response rating [10, 23] | Sugarbeets plant response rating [11, 17] | Sugarbeets plant response rating (0 to 10 scale) [11, 18] | Sugarbeets plant response rating [11, 19] | Plant response rating, Sugarbeets [11, 20] | Sugarbeets plant response rating [11, 21] | Sugarbeets plant response rating [11, 22] | Plant response rating (0 to 10; 0 is no effect, 10 is complete control), Sugarbeets ([11]; Rate 250 g/ha, Postemergence) | Sugarbeets plant response rating [11, 23] | Velvetleaf plant response rating [12, 17] | Velvetleaf plant response rating [12, 19] | Plant response rating, Velvetleaf [12, 20] | Velvetleaf plant response rating [12, 21] | Velvetleaf plant response rating [12, 22] | Plant response rating (0 to 10; 0 is no effect, 10 is complete control), Velvetleaf ([12]; Rate 250 g/ha, Postemergence) | Wild oats plant response rating [13, 17] | Wild oats plant response rating [13, 19] | Plant response rating, Wild oats [13, 20] | Wild oats plant response rating [13, 21] | Wild oats plant response rating [13, 22] | Plant response rating (0 to 10; 0 is no effect, 10 is complete control), Wild oats ([13]; Rate 250 g/ha, Postemergence) | Rice plant response rating [14, 24] | Rice plant response rating [14, 25] | Rice plant response rating [14, 26] | Plant response rating, Rice [14, 27] | S. Flatsedge plant response rating [15, 24] | S. Flatsedge plant response rating [15, 25] | S. Flatsedge plant response rating [15, 26] | S. Flatsedge plant response rating ([15]; Rate 500 g/ha, Pre-emergence, flood test species, scale 0 to 10 (0 no effect, 10 complete control)) | Barnyardgrass plant response rating [16, 24] | Barnyardgrass plant response rating [16, 25] | Barnyardgrass plant response rating [16, 26] | Plant response rating, Barnyardgrass [16, 27]
3: Plant response rating, Crabgrass [6, 20] | Plant response rating, Giant foxtail [7, 20] | Giant foxtail plant response rating [7, 23] | Morningglory plant response rating [8, 21]
